The source of these data is patent publication US20070072954A1, “Novel tetraoxaspiroalkanes and methods of use with organosilicon monomers in polyerizable compositions” (Curators of the University of Missouri, priority 2005, published 2007).

The structures appear in SMILES notation.

Data set [1] is described as follows: Photopolymerization stress measurement (tensilometer). The data set is classed as physicochemical. The method, then: In this example, the photopolymerization stress of the monomers of the present invention was investigated. Stress generated during photopolymerization was measured (n=3) using an electromagnetic mechanical testing machine (Enduratec Model 3200, Bose Corp., Minnetonka, Minn.) adapted to be a tensilometer. See Feilzer et al., Dent. Mater. […] Briefly, two identical glass rods, 5 mm in diameter, were placed opposing one another and separated by 1 mm (C-factor=2.5). A displacement transducer (LVDT, Enduratec, 0.1 μm resolution, range ±1 mm) was mounted on one glass rod and was touching a plate attached to the opposing glass rod. The distance between the mounts on the opposing glass rods was about 9 mm (including the 1 mm separation between the rods). Samples placed between the glass rods were cured by irradiation (500 mW/cm^2), while under LVDT displacement control. Load-displacement data were collected at 200 Hz for 30 mins. […] From the load-displacement data, peak loads were obtained and normalized by the original area to obtain the polymerization stresses.

Data set [2] is described as follows: Oxaspirocyclic ring opening via 13C-NMR. The data set is classed as physicochemical. To be noted: 20 min visible light irradiation with PI system. The method, then: NMR Studies: NMR spectra were acquired using a Bruker Advance Ultrashield FT-NMR spectrometer. A reaction mixture consisting of 6 (DEBTMSPOM-1,5,7,11-TOSU) and the PI system was heated to 55-60° C. to liquefy and then allowed to cool to room temperature. A 300 mg sample was transferred to an 8 mm I.D.×8 mm H cylindrical glass mold and irradiated for 20 min (3 mm; 500 mW/cm^2) using a 3M XL 2500 lamp. A small amount was transferred to an NMR tube, taken up in CDCl3 and the ^13C-NMR spectrum was acquired and compared to the pre-irradiation spectrum. The residual irradiated material was stored in the dark for 24 hr, resampled, and the NMR spectrum acquired and compared to the pre- and post-irradiation spectra.

Data set [3] can be described thus: Photoreactivity assessment (photo DSC enthalpy of polymerization). To be noted: for experimental ΔH as % of the calculated ΔH: 3% photoacid. The data set is classed as physicochemical. The source says: In this example, the photoreactivity of various combinations of SIL-MIX alone or SIL-MIX with 3,9-diethyl-3,9-bis(allyloxymethyl)-1,5,7,11-tetraoxaspiro[5.5]undecane (DEBAOM-1,5,7,11-TOSU) 1; 3,9-bis(3-trimethylsilylpropyl)-1,5,7,11-tetraoxaspiro[5.5]undecane (BTMSP-1,5,7,11-TOSU) 2; 3,9-bis(allyloxymethyl)-2,4,8,10-tetraoxaspiro[5.5]undecane (BAOM-2,4,8,10-TOSU) 3; 3,9-bis(2-trimethylsilylethyl)-[…] (BTMSE-2,4,8,10-TOSU) 4; 3,3-diethyl-11,12-epoxy-1,5,7,16-tetraoxadispiro[5.2.5.2]hexadecane (DECHE-1,5,7,11-TOSU) 5; and 3,9-diethyl-3,9-bis(3-trimethylsilylpropyloxymethyl)-1,5,7,11-tetraoxaspiro[5.5]-undecane (DEBTMSPOM-1,5,7,11-TOSU) 6 was investigated. The photoreactivity assessments (n=1) were made using an EXFO Novacure light curing unit interfaced with a Perkin-Elmer Diamond DSC. The experimental conditions were as follows: 25° C.; N2 atmosphere; 400-500 nm light; 3 mm quartz light guides; output: 500 mW/cm measured 15 mm from sample surface. The sample weights were 15-18 mg. Standard A1 pans were used. An empty pan was placed in the reference position. Irradiation time was for 10 minutes following a 1 minute equilibration. After the initial run, the sample was re-irradiated for an additional 10 minutes. This second curve was subtracted from the initial exotherm curve to zero out artifacts due to beginning and ending of irradiation, and to compensate for the heat capacity differences between the sample pan and empty reference pan. Integrations were from time t=1.1 (lamp shutter opened) min to 11.1 min (lamp shutter closed).
In this example, reaction mixtures containing 0 or 20 mol % of TOSU monomers 1, 2, 3, 4, and 5 in SIL-MIX were formulated with 4.1 wt % photoinitiator system (3 wt % PI; 1 wt % CQ; 0.1 wt % ED). Formulated mixtures were heated for 5 minutes on an oil bath at about 60° C. and stirred magnetically to aid dissolution of the photoinitiator system and inventive monomer. Formulations were prepared and stored away from ambient light. Mixtures were tested for photoreactivity the same day as prepared.
The effect of doubling the photoinitiator (PI) content from 3 wt % to 6 wt % was also determined for selected mixtures. As in Example 7(a) above, reaction mixtures (about 2 g) were formulated with 4.1 wt % photoinitiator system (3 wt % PI; 1 wt % CQ; 0.1 wt % ED) except where noted. Formulated mixtures were heated for 5 minutes on an oil bath @ 60° C. and stirred magnetically to dissolve the photoinitiator system and 6 (DEBTMSPOM-1,5,7,11-TOSU) when included. Formulations were prepared and stored away from ambient light and tested the same day as prepared.

The nature of data set [4]: Oxirane ring-opening (oxirane conversion) via FTIR. The data set is classed as physicochemical. To be noted: thin film, 10 min irradiation. As for the experimental part:
In this example, the oxirane ring-opening of monomers 1 (DEBAOM-1,5,7,11-TOSU) or 6 (DEBTMSPOM-1,5,7,11-TOSU) was investigated using FTIR. All FTIR spectra were acquired using a Perkin-Elmer BX II FTIR spectrophotometer. The identification of the location of the oxirane absorption band in the IR spectrum of Siloranes was achieved by methanolysis. A sample was dissolved in CH2Cl2 and exposed to CH30H in the presence of a catalytic amount of zinc tetrafluoroborate hydrate overnight. The mixture was evaporated onto a salt plate. An FTIR spectrum was acquired and compared to pre-exposure spectrum. There was a significant decrease in the oxirane absorption region at 882-886 cm^−1. This band was selected as the absorption to monitor for following the oxirane ring-opening reaction.
Analytical samples contained siloranes I, II, or SIL-MIX with and without 50 mol % of monomer 1 (DEBAOM-1,5,7,11-TOSU) or 6 (DEBTMSPOM-1,5,7,11-TOSU). A thin film was brushed onto a salt plate. Irradiation (10 minutes at 23 to 25° C. and R. H.=40-45%) was provided by a 3M XL2500 curing light positioned 1-cm above the sample surface. The light intensity was measured at 360 mW/cm^2 on the sample surface. The oxirane band absorption and an internal reference band absorption were assessed before and after irradiation. Oxirane conversion (alpha) was calculated according to equation (1) by Pan et al., Polym Int 2000, 49, 74. [formula] where subscripts 0 and t represent pre-irradiation and post-irradiation respectively.

For `CCC1(COCCC[Si](C)(C)C)COC2(OC1)OCC(CC)(COCCC[Si](C)(C)C)CO2` (centres unmarked) [Monomer 6, 3,9-diethyl-3,9-bis(3-trimethylsilylpropyloxymethyl)-1,5,7,11-tetraoxaspiro[5.5]undecane], the melting point amounted to 44.27 °C. For the same molecule, the “polymerization stress values less than SIL-MIX alone” value in data set [1] (10 mol % TOSU) is 80%. For the same molecule, in data set [1] (25 mol % TOSU), the “polymerization stress values less than SIL-MIX alone” value is listed as 96%. Besides, the Photopolymerization stress in data set [1] (SIL-MIX/6 75/25 mol/mol) was 0.3(0.1) N/mm^2. Besides, the Photopolymerization stress in data set [1] (SIL-MIX/6 90/10 mol/mol) was 2.1(0.2) N/mm^2. In addition, the “changes in 13C-NMR spectrum (oxaspirocyclic ring opening)” value in data set [2] (0 hour dark cure) is recorded as “No significant changes”. Moreover, the “changes in 13C-NMR spectrum (oxaspirocyclic ring opening)” value in data set [2] (24 hour dark cure) was “consistent with oxaspirocyclic ring opening to form oligomeric carbonate species”. Moreover, the ΔHexp in data set [3] (3 wt % PI, 10 mol % in SIL-MIX) is -124 J/g. Moreover, the ΔHexp in data set [3] (3 wt % PI, 25 mol % in SIL-MIX) was -86 J/g. The ΔHcalc in data set [3] (3 wt % PI, calculated for inert diluent instead of TOSU at 10 mol %) is -174 J/g. Besides, the ΔHcalc in data set [3] (3 wt % PI, calculated for inert diluent instead of TOSU at 25 mol %) was -145 J/g. Also, in data set [3] (6 wt % PI, 10 mol % in SIL-MIX), the ΔHexp was -127 J/g. For the same molecule, the ΔHexp in data set [3] (6 wt % PI, 25 mol % in SIL-MIX) is -87 J/g. Moreover, the ΔHcalc in data set [3] (6 wt % PI, calculated for inert diluent instead of TOSU at 10 mol %) is -166 J/g. Besides, the ΔHcalc in data set [3] (6 wt % PI, calculated for inert diluent instead of TOSU at 25 mol %) is -139 J/g. The “experimental ΔH as % of the calculated ΔH” value in data set [3] (10% TOSU mix in SIL-MIX) was 71%. The “experimental ΔH as % of the calculated ΔH” value in data set [3] (25% TOSU mix in SIL-MIX) is given as 59%. Further, the “Oxirane Conversion” value in data set [4] (comonomer 50 mol % in PH-SIL (I)) was found to be 22%. Besides, in data set [4] (comonomer 50 mol % in SIL-MIX), the “Oxirane Conversion” value is reported as 22%. In addition, the “Oxirane Conversion” value in data set [4] (comonomer 50 mol % in TET-SIL (II)) worked out at 3%.

By melting point is commonly meant the temperature of the solid-liquid transition.
